Experimental data reported in ChEMBL document CHEMBL1201862, “PubChem BioAssay data set” (2004).
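Test compounds were applied to cells in 96-well plates for 48 hours at 5 doses. At the GI50, growth is halved.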 The source made the active and inactive calls. Rule as the data show it: active = GI50 up to about 1.1 µM and inactive = higher.

Key:
Assay in all cases: growth of human tumour cells (NCI), 48 h
[1] = tested on: OVCAR-5
[2] = tested on: MCF7
[3] = tested on: SNB-75
[4] = tested on: SF-295
[5] = tested on: HCT-116
[6] = tested on: CCRF-CEM
[7] = tested on: SNB-19
[8] = tested on: UACC-62
[9] = tested on: MDA-MB-435
[10] = tested on: OVCAR-3
[11] = tested on: SK-OV-3
[12] = tested on: U-251
[13] = tested on: NCI/ADR-RES
[14] = tested on: A549
[15] = tested on: OVCAR-4
[16] = tested on: SR
[17] = tested on: UO-31
[18] = tested on: T47D
[19] = tested on: SW-620
[20] = tested on: A498
[21] = tested on: RPMI-8226
[22] = tested on: M14
[23] = tested on: Hs-578T
[24] = tested on: EKVX
[25] = tested on: DU-145
[26] = tested on: Malme-3M
[27] = tested on: CAKI-1
[28] = tested on: TK-10
[29] = tested on: BT-549
[30] = tested on: K562
[31] = tested on: LOX IMVI
[32] = tested on: HCT-15
[33] = tested on: UACC-257
[34] = tested on: 786-0
[35] = tested on: NCI-H522
[36] = tested on: OVCAR-8
[37] = tested on: KM12
[38] = tested on: COLO 205
[39] = tested on: NCI-H460
[40] = tested on: IGROV-1
[41] = tested on: MDA-MB-231
[42] = tested on: SF-268
[43] = tested on: ACHN
[44] = tested on: SK-MEL-5
[45] = tested on: PC-3
[46] = tested on: RXF 393
[47] = tested on: NCI-H23
[48] = tested on: HT-29
[49] = tested on: SK-MEL-28
[50] = tested on: SN12C
[51] = tested on: HOP-62
[52] = tested on: MDA-N
[53] = tested on: SK-MEL-2
[54] = tested on: HCC 2998
[55] = tested on: HL-60
[56] = tested on: SF-539
[57] = tested on: HOP-92
[58] = tested on: NCI-H226
[59] = tested on: MOLT-4

Measured: GI50

CC[C@@]1(O)C(=O)OCc2c1cc1n(c2=O)Cc2cc3c(NC(=O)CN)cccc3nc2-1
active: [2] 0.0466 µM | [3] 0.0733 µM | [4] 0.115 µM | [5] 0.441 µM | [6] < 0.01 µM | [7] 0.154 µM | [8] 0.0506 µM | [11] 0.13 µM | [12] 0.0906 µM | [13] 0.188 µM | [14] 0.766 µM | [16] < 0.01 µM | [17] 0.191 µM | [18] < 0.0236 µM | [20] 0.481 µM | [22] 0.098 µM | [25] 0.065 µM | [27] < 0.01 µM | [29] 0.171 µM | [31] 0.0575 µM | [34] 0.0612 µM | [35] 0.277 µM | [36] 0.392 µM | [39] < 0.0318 µM | [42] < 0.024 µM | [43] 0.0521 µM | [44] 0.407 µM | [46] < 0.0463 µM | [47] 0.114 µM | [50] < 0.0115 µM | [51] 0.109 µM | [55] < 0.0362 µM | [56] < 0.0241 µM | [58] 0.217 µM | [59] < 0.0199 µM
8.13 µM: [32]
inactive: [1] 7.8 µM | [9] 1.49 µM | [10] 2.17 µM | [15] 4.51 µM | [19] 2.07 µM | [21] 1.88 µM | [23] > 36.2 µM | [24] 16.6 µM | [26] 1.41 µM | [28] 10.4 µM | [30] 1.37 µM | [33] 1.43 µM | [37] 2.96 µM | [38] 6.1 µM | [40] 3.42 µM | [41] 14.5 µM | [45] 4.92 µM | [48] 2.69 µM | [49] 7.05 µM | [52] 2.1 µM | [53] 3.7 µM | [54] 1.96 µM | [57] 3.48 µM

COc1cccc2c1cc([N+](=O)[O-])c1c(C(=O)O)cc3c(c12)OCO3 [ARISTOLOCHIC ACID]
inactive: [1] 25.4 µM | [2] 49.4 µM | [3] 30.9 µM | [4] 32.4 µM | [5] 29.9 µM | [6] 20 µM | [7] 37.5 µM | [8] 31.4 µM | [9] 54.8 µM | [10] 33.9 µM | [11] 49.5 µM | [12] 36.9 µM | [13] 38.1 µM | [14] 45.9 µM | [15] 32 µM | [16] 21.7 µM | [17] 40.6 µM | [18] 50.1 µM | [19] 32 µM | [20] 29.4 µM | [21] 24.7 µM | [22] 43.9 µM | [23] 52.8 µM | [24] 43.4 µM | [25] 30.1 µM | [26] 46.8 µM | [27] 27.2 µM | [28] 46.9 µM | [29] 39.4 µM | [30] 33.9 µM | [31] 35.5 µM | [33] 97.7 µM | [34] 37.2 µM | [35] 28.1 µM | [36] 28.7 µM | [37] 27.3 µM | [38] 1.31 µM | [39] 27.7 µM | [40] 29.4 µM | [41] 39.1 µM | [42] 33.8 µM | [43] 41.6 µM | [44] 44 µM | [45] 46.5 µM | [46] 23.4 µM | [47] 39.4 µM | [49] 41.9 µM | [50] > 74.3 µM | [51] 23.7 µM | [52] > 100 µM | [53] 57.8 µM | [54] 2.8 µM | [55] 23.1 µM | [56] 24.9 µM | [57] > 78 µM | [58] 33.7 µM | [59] 26.7 µM
active: [48] 0.889 µM
18.2 µM: [32]

CC(C)(CCCCC(C)(C)NCC1COc2ccccc2O1)NCC1COc2ccccc2O1 (centres undefined)
7.98 µM: [32]
inactive: [1] > 10 µM | [2] 5.98 µM | [3] 9.38 µM | [4] 9.95 µM | [5] 7.91 µM | [6] > 10 µM | [7] > 10 µM | [8] 3.43 µM | [9] 1.81 µM | [10] > 10 µM | [11] > 10 µM | [12] 4.47 µM | [13] > 10 µM | [14] > 10 µM | [15] > 10 µM | [16] > 10 µM | [18] 7.83 µM | [19] 9.75 µM | [20] > 10 µM | [21] > 10 µM | [22] 1.76 µM | [23] 5.66 µM | [24] > 10 µM | [25] > 10 µM | [26] 3.15 µM | [27] > 10 µM | [28] > 10 µM | [29] > 10 µM | [30] > 10 µM | [31] 3.33 µM | [33] 2.04 µM | [34] 3.25 µM | [35] 5.51 µM | [36] > 10 µM | [37] > 10 µM | [38] 2.12 µM | [39] > 10 µM | [40] > 10 µM | [41] 3.54 µM | [42] 5.45 µM | [43] > 10 µM | [44] 1.6 µM | [45] > 10 µM | [46] 3.18 µM | [47] > 10 µM | [48] 2.47 µM | [49] 2.16 µM | [50] > 10 µM | [51] > 10 µM | [52] 2.81 µM | [53] 3.29 µM | [54] 2.42 µM | [55] > 10 µM | [56] 1.85 µM | [57] 2.19 µM | [58] > 10 µM | [59] > 10 µM

CN(C)c1ccc(C(=NN)c2ccc(N(C)C)cc2)cc1
active: [2] 0.573 µM | [3] 0.401 µM | [4] 0.449 µM | [5] 0.532 µM | [6] 0.394 µM | [8] 0.506 µM | [9] 0.0416 µM | [10] 0.798 µM | [12] 0.486 µM | [13] 0.179 µM | [16] 0.231 µM | [19] 0.462 µM | [21] 0.859 µM | [22] 0.504 µM | [27] 0.276 µM | [28] 0.557 µM | [30] 0.229 µM | [31] 0.966 µM | [33] 0.203 µM | [35] 0.25 µM | [37] 0.358 µM | [38] 0.344 µM | [39] 0.337 µM | [40] 0.746 µM | [41] 0.526 µM | [44] 0.447 µM | [45] 0.755 µM | [48] 0.443 µM | [52] 0.0818 µM | [53] 0.121 µM | [54] 0.551 µM | [55] 0.322 µM | [59] 0.361 µM
inactive: [1] 4.95 µM | [7] 2.2 µM | [11] 1.84 µM | [14] 1.3 µM | [15] 9.62 µM | [17] 6.49 µM | [18] 1.66 µM | [20] 4.93 µM | [23] 2.33 µM | [24] 4.74 µM | [25] 2.2 µM | [26] 53.3 µM | [29] 1.77 µM | [34] 4.8 µM | [36] 2.52 µM | [42] 8.91 µM | [43] 8.3 µM | [46] 1.98 µM | [47] 1.46 µM | [49] > 66.1 µM | [50] 2.56 µM | [51] 1.9 µM | [57] 14.5 µM | [58] 3.52 µM
0.229 µM: [32]
